Test results: patent publication US20140045860A1, “SMALL MOLECULE INHIBITORS FOR TREATING PARASITIC INFECTIONS” (NEW YORK UNIVERSITY, priority 2011, published 2014)
“And” between values parts separate entries of the source, which are not always exact repeats. Equal entries are not always repeated. Where two headings read alike, the source gives them in different places.

Columns and labels:
Format in all cases: cell-based
[1] = In vitro counter screen, cytotoxicity L6; conditions: murine
T. cruzi [2] = experiment: In vitro counter screen, T. cruzi; conditions: Trypanosoma cruzi
Method: (§1) A high-throughput screen of small molecules was performed in duplicate in the recombinant Tulahuen strain of T. cruzi stably expressing a beta-galactosidase reporter gene. Trypomastogote-stage parasites were co-cultured with mouse fibroblast NIH/3T3 host cells, (Buckner F S, Verlinde C L, La Flamme A C, Van Voorhis W C. Efficient technique for screening drugs for activity against Trypanosoma cruzi using parasites expressing beta-galactosidase. Antimicrob Agents Chemother. 1996; 40(11): 2592-2597). Signal was normalized to neutral (DMSO) controls, and a 75% inhibition cutoff was used to define a hit. Compounds initially designated as hits were retested in dose in the primary assay to confirm their inhibitory activity. In parallel, compounds were tested in toxicity assays against NIH/3T3 host cells to determine if these compounds were cytotoxic to mammalian cells and thus, false positives. Compounds that reduced the viability of NIH/3T3 cells were excluded as viable hits. A subset of hits were then tested in a similar infection assay with the Tulahuen strain of T. cruzi infecting murine L-6 cells and the intracellular T. cruzi immunofluorescence assay described below.
(§2) In vitro counter screens were performed to confirm our findings.

T. b. rhod. = experiment: In vitro counter screen, T. b. rhod.
Method: as §2

P. falc. K1 = experiment: In vitro counter screen, P. falc. K1
Method: as §2

L. don. axen. = experiment: In vitro counter screen, L. don. axen.
Method: as §2

T. cruzi [3] = experiment: T. cruzi inhibition assay (beta-galactosidase T. cruzi co-cultured with NIH/3T3 host cells); conditions: Trypanosoma cruzi, NIH3T3; Table 2
Method: as §1
1. T. cruzi Inhibition Assay
98% DMEM, Phenol Red, 2% FBS, and 1% PSG were mixed and filtered through a 0.2 microns membrane. The cells were kept at 4° C., then warmed up to 37° C. in a water bath before use.
Gal-Screen. Using a Gal-Screen base kit, Buffer B (Catalog no. T2361) was mixed with 1:25 substrate (Catalog no. T2359).
NIH/3T3 cells were cultivated in DMEM supplemented with 10% FBS and 1% PSG in T175 in 50 mL total of medium.
Parasite Culture: T. cruzi β-gal (Tc): T. cruzi β-gal were cultivated in DMEM supplemented with 2% FBS and 1% PSG in T175 flasks with vented caps in 50 mL total of medium.
2. Growth Inhibition Assay for HTS (384-Well Plates)
The medium was warmed up with 2% FBS/DMEM. The parasites were harvested in 50-mL tubes, and spun for 10 minutes at 2200 rpm. Approximately 15 mL of media was aspirated, and the samples were incubated for 3-5 h. The NIH/3T3 cells were trypsinized (refer to cell culture protocol). When the NIH/3T3 cells were detached, the cells were harvested in DMEM, 2% FBS, and 1% PSG, then counted using the Nexcelom cellometer. The cells were diluted to 166,667 cells/mL, then added to a flask and plated 5,000 cells/30 μL per well using a standard cassette multiwall drob Combi. The cells were incubated for 3 h, then T. cruzi cells were counted, diluted to 0.166 million cells/mL, and transferred to a 2-liter flask. Then, […] compounds/DMSO were pinned to each well with NIH/3T3 cells. Next, 30 μL/well of parasites (5000 T. cruzi) were added with a standard cassette multiwall drop Combi on slow speed, and incubated for 4 days (or a minimum of 90 h). Gal-Screen was prepared, 30 μL per well were dispensed in a 384-well plate, incubated for 60 minutes, and the luminescence was read using Envision (Perkin-Elmer) at 0.1 sec/well.

[4] = read-out: T. cruzi IC50 (ug/mL)
[5] = read-out: T. b. rhod. (IC50, ug/mL)
[6] = same result as ug/mL, in uM, read-out: T. b. rhod (IC50 uM)
[7] = same result as ug/mL, in uM, read-out: P. falc. K1 (IC50 uM)
[8] = same result as ug/mL, in uM, read-out: L. don. Axen (IC50 uM)

Compound | IC50 [1] | IC50 (T. cruzi [2]; read-out: T. cruzi (IC50 uM)) | IC50 (T. cruzi [2]; [4]) | IC50 (T. b. rhod.; [5]) | IC50 (T. b. rhod.; [6]) | IC50 (P. falc. K1; read-out: P. falc. K1 IC50) | IC50 (P. falc. K1; [7]) | IC50 (L. don. axen.; read-out: L. don. axen. IC50) | IC50 (L. don. axen.; [8]) | IC50 ([1]; L6 cells, same result as ug/mL, in uM, read-out: cytotox, (IC50 uM)) | IC50 (L. don. axen.; read-out: L. don. Axen (IC50 uM)) | IC50 (T. cruzi [3])
C[C@H](CO)N1C[C@H](C)[C@H](CN(C)Cc2ccccc2)Oc2c(NC(=O)c3ccncc3)cccc2C1=O [Compound 1] | > 199 µM and > 100 µg/mL | 1.24 µM | 0.622 µg/mL | 75.4 µg/mL | 150 µM | 20.6 µg/mL | 41 µM | > 100 µg/mL | > 199 µM | – | – | –
COc1ccc(CN(C)C[C@@H]2Oc3c(NC(=O)c4ccncc4)cccc3C(=O)N([C@H](C)CO)C[C@H]2C)cc1 [Compound 5] | > 188 µM and > 100 µg/mL | 1.31 µM | 0.699 µg/mL | 20.2 µg/mL | 37.9 µM | 7.39 µg/mL | 13.9 µM | > 100 µg/mL | > 188 µM | – | – | –
C[C@@H]1CN([C@@H](C)CO)C(=O)c2cccc(NC(=O)c3ccncc3)c2O[C@H]1CN(C)Cc1ccc(-c2ccccc2)cc1 [Compound 7] | 23.3 µM and 13.5 µg/mL | 0.123 µM | 0.071 µg/mL | 0.729 µg/mL | 1.26 µM | 1.2 µg/mL | 2.07 µM | 13.3 µg/mL | 23 µM | – | – | –
C[C@@H]1CN([C@H](C)CO)C(=O)c2cccc(NC(=O)c3ccncc3)c2O[C@H]1CN(C)Cc1ccc2c(c1)OCO2 [Compound 8] | – | 0.143 µM | – | – | 12.5 µM | – | 10.6 µM | – | – | > 183 µM | > 183 µM | –
C[C@@H]1CN([C@H](C)CO)C(=O)c2cccc(NC(=O)c3ccncc3)c2O[C@H]1CN(C)Cc1ccccc1 [Compound 9] | > 199 µM and > 100 µg/mL | 0.304 µM | 0.153 µg/mL | 35.1 µg/mL | 69.8 µM | 4.83 µg/mL | 9.61 µM | 84.4 µg/mL | 168 µM | – | – | –
C[C@H](CO)N1C[C@H](C)[C@@H](CN(C)Cc2ccc(C(F)(F)F)cc2)Oc2c(NC(=O)c3ccncc3)cccc2C1=O [Compound 13] | 79.7 µM and 45.5 µg/mL | 0.875 µM | 0.499 µg/mL | 3.49 µg/mL | 6.12 µM | 2.95 µg/mL | 5.17 µM | 16.3 µg/mL | 28.6 µM | – | – | –
C[C@H]1CN([C@@H](C)CO)C(=O)c2cccc(NC(=O)c3ccncc3)c2O[C@H]1CN(C)Cc1ccccc1 [Compound 17] | > 199 µM and > 100 µg/mL | 0.39 µM | 0.196 µg/mL | 6.14 µg/mL | 12.2 µM | 5.64 µg/mL | 11.2 µM | > 100 µg/mL | > 199 µM | – | – | –
C[C@H]1CN([C@@H](C)CO)C(=O)c2cccc(NC(=O)c3ccncc3)c2O[C@H]1CN(C)Cc1ccc(-c2ccccc2)cc1 [Compound 20] | 30.2 µM and 17.5 µg/mL | 0.394 µM | 0.228 µg/mL | 6.41 µg/mL | 11.1 µM | 1.14 µg/mL | 1.97 µM | 6.47 µg/mL | 11.2 µM | – | – | –
C[C@@H]1CN([C@@H](C)CO)C(=O)c2cccc(NC(=O)c3ccncc3)c2O[C@H]1CN(C)Cc1ccc(Oc2ccccc2)cc1 [Compound 21] | – | – | – | – | – | – | – | – | – | – | – | < 0.0026 µM
C[C@@H](CO)N1CC[C@H](CN(C)Cc2cccc(Cl)c2)Oc2c(NC(=O)c3ccncc3)cccc2C1=O [Compound 22] | – | – | – | – | – | – | – | – | – | – | – | < 0.0026 µM
C[C@@H]1CN([C@@H](C)CO)C(=O)c2cccc(NC(=O)c3ccncc3)c2O[C@H]1CN(C)C [Compound 23] | – | – | – | – | – | – | – | – | – | – | – | > 10 µM
C[C@H](CO)N1C[C@H](C)[C@@H](CN(C)Cc2ccc(Oc3ccccc3)cc2)Oc2c(NC(=O)c3ccncc3)cccc2C1=O [Compound 24] | – | – | – | – | – | – | – | – | – | – | – | < 0.0026 µM
C[C@@H]1CN([C@@H](C)CO)C(=O)c2cc(Br)cnc2O[C@H]1CN(C)Cc1ccc2c(c1)OCO2 [Compound 25] | – | – | – | – | – | – | – | – | – | – | – | > 10 µM
C[C@@H]1CN([C@@H](C)CO)C(=O)c2cccc(NC(=O)c3ccncc3)c2O[C@H]1CN(C)Cc1ccccc1Cl [Compound 26] | – | – | – | – | – | – | – | – | – | – | – | 0.0039 µM
C[C@@H]1CN([C@H](C)CO)C(=O)c2cccc(NC(=O)c3ccncc3)c2O[C@H]1CN(C)Cc1ccc2c(c1)OCO2 [Compound 27] | – | – | – | – | – | – | – | – | – | – | – | 0.00148 µM
